The text below walks through data of ChEMBL document CHEMBL1124616, “Hybrid cholecystokinin (CCK) antagonists: new implications in the design and modification of CCK antagonists” (J Med Chem, 1989).

Assay [1] addresses T1, Cholecystokinin receptor type A (Cavia porcellus, UniProt Q63931).
T1 sequence (Q63931 whole entry): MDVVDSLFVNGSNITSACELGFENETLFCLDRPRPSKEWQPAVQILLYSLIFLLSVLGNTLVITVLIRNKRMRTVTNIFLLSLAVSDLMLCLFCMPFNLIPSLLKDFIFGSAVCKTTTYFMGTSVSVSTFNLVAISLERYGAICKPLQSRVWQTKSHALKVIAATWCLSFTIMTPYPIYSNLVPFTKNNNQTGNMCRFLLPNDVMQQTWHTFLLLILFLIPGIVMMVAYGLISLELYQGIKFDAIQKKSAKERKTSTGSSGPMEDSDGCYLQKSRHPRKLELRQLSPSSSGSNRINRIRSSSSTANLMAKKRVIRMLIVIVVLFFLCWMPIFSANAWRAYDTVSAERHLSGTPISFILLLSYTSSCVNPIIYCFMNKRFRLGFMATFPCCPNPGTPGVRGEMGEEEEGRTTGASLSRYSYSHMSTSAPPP
Description: Compound was evaluated for the binding affinity against Cholecystokinin type A receptor in pancreatic acinar cell.

For assay [2], the species on record is Cavia porcellus. Description: Compound was evaluated for the ability to inhibit CCK-stimulated amylase release in pancreatic acinar cells of guinea pig. Format: functional.
The target in assay [3] is T2, Gastrin/cholecystokinin type B receptor (Cavia porcellus, UniProt H0VZC5). In words: Compound was evaluated for the binding affinity against Cholecystokinin type A receptor in cortical cells. Format: cell-based.
Assay [4] deals with T1, Cholecystokinin receptor type A. In words: Compound was evaluated for the binding affinity against CCK A receptor in pancreatic acinar cell.
In assay [5] the target is T2, Gastrin/cholecystokinin type B receptor. In words: Compound was evaluated for the binding affinity against CCK A receptor in cortical cells. Format: cell-based.

T2 sequence (H0VZC5 1-426): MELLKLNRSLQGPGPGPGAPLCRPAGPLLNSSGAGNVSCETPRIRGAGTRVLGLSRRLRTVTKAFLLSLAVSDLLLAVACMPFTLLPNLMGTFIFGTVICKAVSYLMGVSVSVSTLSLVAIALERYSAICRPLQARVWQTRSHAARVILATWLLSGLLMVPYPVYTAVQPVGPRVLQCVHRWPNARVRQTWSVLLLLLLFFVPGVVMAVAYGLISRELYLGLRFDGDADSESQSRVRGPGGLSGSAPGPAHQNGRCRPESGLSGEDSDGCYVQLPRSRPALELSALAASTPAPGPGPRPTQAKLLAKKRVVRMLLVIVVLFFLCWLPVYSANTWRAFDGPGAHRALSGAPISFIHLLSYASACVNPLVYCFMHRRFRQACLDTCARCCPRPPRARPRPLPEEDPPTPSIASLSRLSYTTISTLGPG

As for `CCCCCN(CCCCC)C(=O)[C@@H](CCC(=O)O)NC(=O)c1cccc2ccccc12`, the IC50 was 320 nM in assay [1], 280 nM in assay [2] and 11000 nM in assay [3].
In assay [2], `CCCCCN(CCCCC)C(=O)[C@@H](CCC(=O)O)NC(=O)c1cc2ccccc2[nH]1` had an IC50 of 36 nM.
On to `CCCCCN(CCCCC)C(=O)[C@@H](CCC(=O)O)NC(=O)c1cnc2ccccc2c1`, for which the IC50 in assay [2] worked out at 16 nM.
In assay [1], `CCCCCN(CCCCC)C(=O)[C@@H](CCC(=O)O)NC(=O)c1ccc2ccccc2n1` had an IC50 of 63 nM. This lies in the double-digit nanomolar range.
`CCCCCN(CCCCC)C(=O)[C@H](CCC(=O)O)NC(=O)c1cc2ccccc2[nH]1` gave an IC50 in assay [2] of 590 nM.
For `CCCCCN(CCCCC)C(=O)[C@H](CCC(=O)O)NC(=O)c1ccc(Cl)c(Cl)c1`, the IC50 in assay [4] came to 4900 nM; in assay [2], 11000 nM.
Consider `CCCCCN(CCCCC)C(=O)[C@@H](CCC(=O)O)NC(=O)c1c[nH]c2ccccc12`, for which the half-inhibitory concentration (IC50) in assay [2] turned out to be 830 nM; in assay [3] it was 32000 nM.
For the compound `CCCCCN(CCCCC)C(=O)[C@@H](CCC(=O)O)NC(=O)c1ccc2ncccc2c1`, the IC50 in assay [5] stood at 11000 nM; in assay [4], 31 nM; in assay [2], 65 nM.
In turn, `CCCCCN(CCCCC)C(=O)[C@@H](CCC(=O)O)NC(=O)c1ccc(Cl)c(Cl)c1` yielded an IC50 in assay [2] of 180 nM.
With `CCCCCN(CCCCC)C(=O)[C@@H](CCC(=O)O)NC(=O)c1ccc2ccccc2c1` [AMIGLUMIDE], the IC50 in assay [1] is 12 nM; in assay [2], 36 nM; in assay [3], 4200 nM.

A word on the IC50: it is the concentration at which inhibition is half-maximal.
